# Experimental data taken from US20160159814A1, “GLYCINE TRANSPORTER INHIBITOR” (TAISHO PHARMACEUTICAL CO., LTD., priority 2013, published 2016).
# Molecular target: T1, human type 1 glycine transporter (GlyT1) (Homo sapiens, UniProt P48067)
# T1 construct: T98G cells (glioma cells) expressing human type 1 glycine transporter (GlyT1) were used; endogenous in cells; host or cells: T98G cells (human glioma cells)
# T1 sequence (P48067 1-706): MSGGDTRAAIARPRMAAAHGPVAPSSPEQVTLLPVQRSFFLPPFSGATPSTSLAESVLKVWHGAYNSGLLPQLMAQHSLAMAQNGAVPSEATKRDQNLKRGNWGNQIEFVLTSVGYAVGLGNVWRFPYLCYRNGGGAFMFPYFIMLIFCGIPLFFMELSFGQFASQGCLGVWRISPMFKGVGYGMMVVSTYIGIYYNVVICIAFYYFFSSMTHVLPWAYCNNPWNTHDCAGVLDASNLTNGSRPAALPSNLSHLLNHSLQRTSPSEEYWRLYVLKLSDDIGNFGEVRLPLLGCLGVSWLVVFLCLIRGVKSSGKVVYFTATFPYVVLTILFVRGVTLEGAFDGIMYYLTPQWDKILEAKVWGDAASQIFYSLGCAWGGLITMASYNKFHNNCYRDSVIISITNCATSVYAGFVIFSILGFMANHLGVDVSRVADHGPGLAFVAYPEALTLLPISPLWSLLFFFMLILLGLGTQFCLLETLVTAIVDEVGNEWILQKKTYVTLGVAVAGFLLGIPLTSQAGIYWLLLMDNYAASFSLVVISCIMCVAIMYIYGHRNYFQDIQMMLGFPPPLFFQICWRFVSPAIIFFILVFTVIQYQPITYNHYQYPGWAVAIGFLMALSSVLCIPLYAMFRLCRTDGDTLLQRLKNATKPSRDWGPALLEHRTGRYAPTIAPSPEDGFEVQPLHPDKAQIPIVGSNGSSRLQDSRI
# Assay: Glycine uptake inhibition experiment ([3H] glycine uptake in T98G cells expressing GlyT1)
# Format: cell-based
# Procedure, shortened: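 T98G glioma cells expressing human GlyT1 were pretreated 10 min with compound in HEPES buffer pH 7.4 (0.2% BSA), then incubated with compound plus 250 nM final [3H]glycine for 15 min at room temperature. Intracellular radioactivity was counted after NaOH lysis; 10 μM ALX5407 defined non-specific uptake. IC50 came from 10^−9–10^−5 M curves.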
row,IC50 [µM],SMILES
1,0.0056,"[2H]C([2H])(c1cccc(Cl)n1)N1C(=O)C(F)(F)c2c([C@H](C)O)cccc21 [Compound 205, 1-[(6-chloropyridin-2-yl)(2H2)methyl]-3,3-difluoro-4-[(1S)-1-hydroxyethyl]-1,3-dihydro-2H-indol-2-one]"
2,0.06,"C[C@H](O)c1cccc2c1C(F)(F)C(=O)N2Cc1ncccc1Cl [Compound 206, 1-[(3-chloropyridin-2-yl)methyl]-3,3-difluoro-4-[(1S)-1-hydroxyethyl]-1,3-dihydro-2H-indol-2-one]"
3,0.094,"C[C@H](O)c1cccc2c1C(F)(F)C(=O)N2Cc1cnccc1Cl [Compound 207, 1-[(4-chloropyridin-3-yl)methyl]-3,3-difluoro-4-[(1S)-1-hydroxyethyl]-1,3-dihydro-2H-indol-2-one]"
4,0.15,"C[C@H](O)c1cccc2c1C(F)(F)C(=O)N2Cc1ncccc1F [Compound 208, 3,3-difluoro-1-[(3-fluoropyridin-2-yl)methyl]-4-[(1S)-1-hydroxyethyl]-1,3-dihydro-2H-indol-2-one]"
5,2.8,"COc1ccncc1CN1C(=O)C(F)(F)c2c([C@H](C)O)cccc21 [Compound 209, 3,3-difluoro-4-[(1S)-1-hydroxyethyl]-1-[(4-methoxypyridin-3-yl)methyl]-1,3-dihydro-2H-indol-2-one]"
6,0.68,"C[C@H](O)c1cccc2c1C(F)(F)C(=O)N2Cc1cccnc1Cl [Compound 210, 1-[(2-chloropyridin-3-yl)methyl]-3,3-difluoro-4-[(1S)-1-hydroxyethyl]-1,3-dihydro-2H-indol-2-one]"
7,0.085,"C[C@H](O)c1cccc2c1C(F)(F)C(=O)N2Cc1ncccc1Br [Compound 211, 1-[(3-bromopyridin-2-yl)methyl]-3,3-difluoro-4-[(1S)-1-hydroxyethyl]-1,3-dihydro-2H-indol-2-one]"
8,0.0082,"C[C@H](O)c1cccc2c1C(F)(F)C(=O)N2Cc1cc(C(F)(F)F)c(Cl)cn1 [Compound 212, 1-{[5-chloro-4-(trifluoromethyl)pyridin-2-yl]methyl}-3,3-difluoro-4-[(1S)-1-hydroxyethyl]-1,3-dihydro-2H-indol-2-one]"
9,0.04,"C[C@H](O)c1cccc2c1C(F)(F)C(=O)N2Cc1ncccc1C#N [Compound 213, 2-({3,3-difluoro-4-[(S)-1-hydroxyethyl]-2-oxo-2,3-dihydro-1-indol-1-yl}methyl)pyridine-3-carbonitrile]"
10,0.14,"C[C@H](O)c1cccc2c1C(F)(F)C(=O)N2Cc1cnc(Cl)nc1 [Compound 214, 1-[(2-chloropyrimidin-5-yl)methyl]-3,3-difluoro-4-[(1S)-1-hydroxyethyl]-1,3-dihydro-2H-indol-2-one]"
11,0.24,"C[C@H](O)c1cccc2c1C(F)(F)C(=O)N2Cc1ccc(OC(F)F)nc1 [Compound 215, 1-{[6 (difluoromethoxy)pyridin-3-yl]methyl}-3,3-difluoro-4-[(1S)-1-hydroxyethyl]-1,3-dihydro-2H-indol-2-one]"
12,0.0094,"C[C@H](O)c1cccc2c1C(F)(F)C(=O)N2Cc1ccc(C(F)(F)F)c(C#N)n1 [Compound 216, 6-({3,3-difluoro-4-[(1S)-1-hydroxyethyl]-2-oxo-2,3-dihydro-1H-indol-1-yl}methyl)-3-(trifluoromethyl) pyridine-2-carbonitrile]"
13,0.12,"COc1ccc(CN2C(=O)C(F)(F)c3c([C@H](C)O)cccc32)nc1C#N [Compound 217, 6-({3,3-difluoro-4-[(1S)-1-hydroxyethyl]-2-oxo-2,3-dihydro-1H-indol-1-yl}methyl)-3-methoxypyridine-2-carbonitrile]"
14,0.033,"C[C@H](O)c1cccc2c1C(F)(F)C(=O)N2Cc1ncc(C(F)(F)F)cc1Cl [Compound 221, 1-{[3-chloro-5-(trifluoromethyl)pyridin-2-yl]methyl)-3,3-difluoro-4-[(1S)-1-hydroxyethyl]-1,3-dihydro-2H-indol-2-one]"
15,0.0086,"COc1ncc(CN2C(=O)C(F)(F)c3c([C@H](C)O)cccc32)cc1Cl [Compound 222, 1-[(5-chloro-6-methoxypyridin-3-yl)methyl]-3,3-difluoro-4-[(1S)-1-hydroxyethyl)-1,3-dihydro-2H-indol-2-one]"
16,0.066,"C[C@H](O)c1cccc2c1C(F)(F)C(=O)N2Cc1cnc(Cl)cc1Cl [Compound 223, 1-[(4,6-dichloropyridin-3-yl)methyl]-3,3-difluoro-4-[(1S)-1-hydroxyethyl]-1,3-dihydro-2H-indol-2-one]"

row,IC50 [µM],SMILES
1,0.74,"C[C@H](O)c1cccc2c1C(F)(F)C(=O)N2Cc1ccc(Cl)nc1Cl [Compound 224, 1-[(2,6-dichloropyridin-3-yl)methyl]-3,3-difluoro-4-[(1S)-1-hydroxyethyl]-1,3-dihydro-2H-indol-2-one]"
2,0.057,"C[C@H](O)c1cccc2c1C(F)(F)C(=O)N2Cc1ncc(Cl)cc1Cl [Compound 225, 1-[(3,5-dichloropyridin-2-yl)methyl]-3,3-difluoro-4-[(1S)-1-hydroxyethyl]-1,3-dihydro-2H-indol-2-one]"
3,0.04,"C[C@H](O)c1cccc2c1C(F)(F)C(=O)N2Cc1ncc(F)cc1Br [Compound 226, 1-[(3-bromo-5-fluoropyridin-2-yl)methyl]-3,3-difluoro-4-[(1S)-1-hydroxyethyl]-1,3-dihydro-2H-indol-2-one]"
4,0.38,"C[C@H](O)c1cccc2c1C(F)(F)C(=O)N2Cc1ncccc1C(F)(F)F [Compound 227, 3,3-difluoro-4-[(1S)-1-hydroxyethyl]-1 {[3-(trifluoromethyl)pyridin-2-yl]methyl)-1,3-dihydro-2H-indol-2-one]"
5,0.0021,"C[C@H](O)c1cccc2c1C(F)(F)C(=O)N2Cc1cnc(F)c(Br)c1 [Compound 228, 1-[(5-bromo-6-fluoropyridin-3-yl)methyl]-3,3-difluoro-4-[(1S)-1-hydroxyethyl]-1,3-dihydro-2H-indol-2-one]"
6,0.0017,"C[C@H](O)c1cccc2c1C(F)(F)C(=O)N2Cc1ccc(F)c(Br)n1 [Compound 229, 1-[(6-bromo-5-fluoropyridin-2-yl)methyl]-3,3-difluoro-4-[(1S)-1-hydroxyethyl)-1,3-dihydro-2H-indol-2-one]"
7,0.063,"COc1nc(Cl)ccc1CN1C(=O)C(F)(F)c2c([C@H](C)O)cccc21 [Compound 230, 1-[(6-chloro-2-methoxypyridin-3-yl)methyl]-3,3-difluoro-4-[(1S)-1-hydroxyethyl]-1,3-dihydro-2H-indol-2-one]"
8,0.14,"COc1cc(Cl)ncc1CN1C(=O)C(F)(F)c2c([C@H](C)O)cccc21 [Compound 231, 1-[(6-chloro-4-methoxypyridin-3-yl)methyl]-3,3-difluoro-4-[(1S)-1-hydroxyethyl]-1,3-dihydro-2H-indol-2-one]"
9,0.032,"COc1cc(CN2C(=O)C(F)(F)c3c([C@H](C)O)cccc32)ncc1Cl [Compound 232, 1-[(5-chloro-4-methoxypyridin-2-yl)methyl)-3,3-difluoro-4-[(1S)-1-hydroxyethyl]-1,3-dihydro-2H-indol-2-one]"
10,0.18,"C[C@H](O)c1cccc2c1C(F)(F)C(=O)N2Cc1ncc(F)cc1C#N [Compound 233, 2-({3,3-difluoro-4-[(1S)-1-hydroxyethyl)-2-oxo-2,3-dihydro-1H-indol-1-yl}methyl)-5-fluoropyridine-3-carbonitrile]"
11,0.62,"O=C1N(Cc2cncc(Cl)c2)c2cc(F)cc(C(O)C(F)F)c2C1(F)F (stereo not shown) [Compound 234, 1-[(5-chloropyridin-3-yl)methyl)-4-(2,2-difluoro-1-hydroxyethyl)-3,3,6-trifluoro-1,3-dihydro-2H-indol-2-one]"
12,0.023,"C[C@H](O)c1cccc2c1C(F)(F)C(=O)N2Cc1cnc(F)c(C#N)c1 [Compound 235, 5-({3,3-difluoro-4-[(1S)-1-hydroxyethyl]-2-oxo-2,3-dihydro-1H-indol-1-yl}methyl)-2-fluoropyridine-3-carbonitrile]"
13,0.004,"C[C@H](O)c1cccc2c1C(F)(F)C(=O)N2Cc1ccc(F)c(C#N)n1 [Compound 236, 6-({3,3-difluoro-4-[(1S)-1-hydroxyethyl]-2-oxo-2,3-dihydro-1H-indol-1-yl}methyl)-3-fluoropyiidine-2-carbonitrile]"
14,0.0029,"C[C@H](O)c1cccc2c1C(F)(F)C(=O)N2Cc1ccc(F)c(Cl)n1 [Compound 237, 1-[(6-chloro-5-fluoropyridin-2-yl)methyl]-3,3-difluoro-4-[(1S)-1-hydroxyethyl]-1,3-dihydro-2H-indol-2-one]"
15,0.0062,"C[C@H](O)c1cccc2c1C(F)(F)C(=O)N2Cc1ccc(C(F)(F)F)c(Cl)n1 [Compound 238, 1-{[6-chloro-5-(trifluoromethyl)pyridin-2-yl]methyl}-3,3-difluoro-4-[(1S)-1-hydroxyethyl]-1,3-dihydro-2H-indol-2-one]"
